From article PMC12959773 (Protein & Cell, 2025)
Numbering of substitutions follows the chain as printed.

Columns and labels:
Assay in all cases: [2H]-cystine uptake, isotope tracking
Type in all cases: cell-based
Settings in all cases: HEK293 cells transfected with SLC7A13 and SLC3A1; labelled compound
[1] = biological target: T1, SLC7A13-SLC3A1 complex (Homo sapiens, UniProt Q8TCU3, S219A)
T1 construct: heterodimeric light/heavy chain transporter, dimer of heterodimers; ectopically expressed in HEK293T / HEK293 cells (Expi293 for cryo-EM); with Amino acid transporter heavy chain SLC3A1
T1 sequence (Q8TCU3 1-470 S219A): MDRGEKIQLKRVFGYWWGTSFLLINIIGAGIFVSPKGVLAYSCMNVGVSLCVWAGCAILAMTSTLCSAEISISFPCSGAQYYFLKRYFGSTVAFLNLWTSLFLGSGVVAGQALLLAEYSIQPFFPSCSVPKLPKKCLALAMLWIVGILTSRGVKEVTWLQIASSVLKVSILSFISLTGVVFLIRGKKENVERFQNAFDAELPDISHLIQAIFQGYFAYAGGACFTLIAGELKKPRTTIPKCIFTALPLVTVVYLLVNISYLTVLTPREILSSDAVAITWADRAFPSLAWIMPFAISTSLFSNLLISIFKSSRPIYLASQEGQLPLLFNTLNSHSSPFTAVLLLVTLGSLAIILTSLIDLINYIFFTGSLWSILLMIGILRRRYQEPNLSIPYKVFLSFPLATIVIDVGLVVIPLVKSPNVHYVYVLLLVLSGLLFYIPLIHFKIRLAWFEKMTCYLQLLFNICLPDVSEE
T1 sequence (Q07837 1-685 partner): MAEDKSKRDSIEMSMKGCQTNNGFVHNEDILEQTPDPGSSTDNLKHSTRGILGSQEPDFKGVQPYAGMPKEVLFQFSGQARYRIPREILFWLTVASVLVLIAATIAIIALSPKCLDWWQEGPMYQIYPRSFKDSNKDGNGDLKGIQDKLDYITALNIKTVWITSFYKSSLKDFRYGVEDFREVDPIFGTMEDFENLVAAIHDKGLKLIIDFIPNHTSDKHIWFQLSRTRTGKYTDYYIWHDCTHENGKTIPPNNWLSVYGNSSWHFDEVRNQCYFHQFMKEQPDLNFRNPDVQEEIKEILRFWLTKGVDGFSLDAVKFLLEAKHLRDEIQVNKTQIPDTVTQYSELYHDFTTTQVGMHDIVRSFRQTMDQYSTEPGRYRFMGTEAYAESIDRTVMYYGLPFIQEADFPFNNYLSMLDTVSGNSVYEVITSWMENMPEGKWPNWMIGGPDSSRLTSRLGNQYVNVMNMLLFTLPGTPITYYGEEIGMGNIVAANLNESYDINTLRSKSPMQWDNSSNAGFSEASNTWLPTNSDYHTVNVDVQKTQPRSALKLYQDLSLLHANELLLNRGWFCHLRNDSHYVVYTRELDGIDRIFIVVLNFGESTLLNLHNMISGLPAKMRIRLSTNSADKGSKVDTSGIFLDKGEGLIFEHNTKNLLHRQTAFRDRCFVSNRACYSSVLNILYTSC

[2] = biological target: T2, SLC7A13-SLC3A1 complex (Homo sapiens, UniProt Q8TCU3, S306A)
T2 construct: heterodimeric light/heavy chain transporter, dimer of heterodimers; ectopically expressed in HEK293T / HEK293 cells (Expi293 for cryo-EM); with Amino acid transporter heavy chain SLC3A1
T2 sequence (Q8TCU3 1-470 S306A): T1 sequence (Q8TCU3 1-470 S219A) with A219S, S306A
T2 sequence (Q07837 1-685 partner): T1 sequence (Q07837 1-685 partner)

[3] = biological target: T3, SLC7A13-SLC3A1 complex (Homo sapiens, UniProt Q8TCU3, F224A)
T3 construct: heterodimeric light/heavy chain transporter, dimer of heterodimers; ectopically expressed in HEK293T / HEK293 cells (Expi293 for cryo-EM); with Amino acid transporter heavy chain SLC3A1
T3 sequence (Q8TCU3 1-470 F224A): T1 sequence (Q8TCU3 1-470 S219A) with A219S, F224A
T3 sequence (Q07837 1-685 partner): T1 sequence (Q07837 1-685 partner)

SMILES: N[C@@H](CSSC[C@H](N)C(=O)O)C(=O)O [cystine]
- cystine uptake [1]: mutation in any of the seven SLC7A13-specific residues to alanine significantly reduced SLC7A13’s transporter activities
- cystine uptake [2]: mutation in any of the seven SLC7A13-specific residues to alanine significantly reduced SLC7A13’s transporter activities
- cystine uptake [3]: mutation in any of the seven SLC7A13-specific residues to alanine significantly reduced SLC7A13’s transporter activities
